Experimental data published in PubChem BioAssay AID179 (DTP/NCI, 2004).
pEC50, pIC50: −log10 of the molar value. Activity calls are given as the source filed them.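 The calls were made as follows: active = compounds giving half or more protection of infected cells from virus-caused growth loss, again on retest; inactive = the rest.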 Where a SMILES comes first, the peptide text is derived from it. The star is where a group is joined. Cbz = O=C(OCc1ccccc1)*

System: CEM cells HIV-1 protection, formazan growth assay
Assay: NCI AIDS Antiviral Assay
Conditions: for pIC50: measured here: growth of uninfected CEM cells
In short: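 Protection of CEM cells against HIV-1 measured as cell growth via soluble formazan read-out, with five concentrations tested on both infected and uninfected cells; failure to protect may reflect toxicity.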

Compound | pEC50 | pIC50 | outcome
CC(CSC(=N)N)C(N)=O (stereo unspecified) | < 3.70 | < 3.70 | –
COC(=O)C1(C(=O)OC)N=C(C)OC1/C=C/c1ccccc1 (stereo unspecified) | < 3.70 | < 4.00 | –
CCOC(=O)C(=O)Nc1c(CC)cccc1C(C)CC (stereo unspecified) | < 3.19 | < 3.19 | –
CCN1C[C@]2(COC)C(O)CC(OC)C34[C@@H]5C[C@@]6(O)C(O)[C@@H]5[C@](O)(C(O)[C@@H]6OC)[C@@H](C(OC)[C@@H]32)[C@H]14 (stereo partly specified) | – | – | inactive
CC(C)(C)NC(=O)C12C3C4C1C1C2C3C41C(=O)NC(C)(C)C (stereo unspecified) | – | – | inactive
COC(=O)c1cc(C)ccc1C1CN=NC12Cc1cccc(C)c1C2=O (stereo unspecified) | < 3.70 | 4.57 | –
Cc1ccc(S(=O)(=O)SCc2ccccc2CSS(=O)(=O)c2ccc(C)cc2)cc1 | – | – | inactive
Cc1ccc(/C=N/Nc2ncccn2)s1 | < 3.70 | < 3.70 | –
N#C/C(=C\c1cc(O)c(O)c(O)c1)C(=O)NCCCCCNC(=O)/C(C#N)=C/c1cc(O)c(O)c(O)c1 | < 3.70 | 4.42 | –
CCCCCCCCCCCCCCCCCC(=O)O[C@H](COC(=O)CCCCCCCCCCC)COC(=O)CCCCCCCCCCCCCCC | < 4.00 | < 4.00 | –
O=C1/C(=C/c2ccc(O)cc2)CCc2ccccc21 | < 3.70 | 4.68 | –
Nc1ncc(CN2CCOCC2)c(-c2ccccc2O)n1 | < 3.70 | < 3.70 | –
COC=C=CC(C)(C)OC | < 3.26 | < 3.26 | –
COc1ccc(Br)c(CCC(CO)C2=CCC3(CC2)OCCO3)c1 (stereo unspecified) | 4.80 | 4.06 | –
O=C(O)c1ccccc1C(=O)Nc1ccc(S(=O)(=O)Nc2nccs2)cc1 | < 3.70 | < 3.70 | –
Cc1cc(N(CCC#N)CCC#N)ccc1/C=C(\NC(=O)/C=C/c1ccccc1)C(=O)Nc1ccccc1Cl | – | – | inactive
Cc1nc2ccccc2c(=O)n1NC(=O)c1ccc([N+](=O)[O-])cc1 | < 3.70 | < 3.70 | –
CN(C(=O)CCC(=O)O)c1ccccc1C(=O)O | < 3.70 | < 3.70 | –
c1cnc(NCCSSCCNc2ncccn2)nc1 | < 3.70 | 4.42 | –
COC1C(N)C(OC2C(Oc3cccc4c(O)c5c(=O)oc6ccc(C)c7c(=O)oc(c34)c5c67)OC(C)C(O)C2(C)O)OC(C)C1O (stereo unspecified) | < 6.70 | 7.44 | –
O=C(c1ccc(Cl)cc1Cl)N(/N=C/C=C/c1ccccc1)c1nnc(-c2ccccc2)c(-c2ccccc2)n1 | < 4.88 | < 4.88 | –
C[Si]1(C)CCCSC1 | < 3.70 | < 3.70 | –

Compound | pEC50 | pIC50 | outcome
COC1=CC2(C=CC1=O)CCC(=O)O2 (stereo unspecified) | 4.98 | 3.76 | –
CCOC(=O)NC(Nc1cccc(F)c1)(C(F)(F)F)C(F)(F)F | < 3.70 | < 3.70 | –
N#CC(C#N)=C1SC(=Nc2ccccc2)C(=Nc2ccccc2)N1c1ccccc1 | < 3.70 | 6.00 | –
COc1cccc(C2SCC(=O)N2c2ccc(-c3ccc(-n4c(-c5ccccc5)nc5ccccc5c4=O)cc3)cc2)c1OC (stereo unspecified) | < 3.70 | 4.20 | –
Clc1cc(C(c2cc(Cl)sc2Cl)c2cc(Cl)sc2Cl)c(Cl)s1 | < 4.30 | < 4.30 | –
CCOC(=O)C1C(c2ccco2)C2(C#N)C(=N)OC1(C)C2(C#N)C#N (stereo unspecified) | < 3.70 | 4.19 | –
N#CC1CC(c2ccccc2)Nc2cc(Cl)ccc2N1 (stereo unspecified) | < 4.32 | 5.16 | –
CC(=O)c1sc(Nc2nnc(-c3ccc(-c4nnc(Nc5nc(C)c(C(C)=O)s5)o4)cc3)o2)nc1C | – | – | inactive
O=C(O)C(CO)NC(=O)C1CCCN1C(=O)OCc1ccccc1 (stereo not drawn) (Cbz-Pro-Ser-OH; configuration not given here) | < 4.11 | < 4.11 | –
COc1c(Br)cc2ccccc2c1-c1c(OC)c(Br)cc2ccccc12 | 4.76 | < 4.00 | –
O=P(O)(O)CC1OC(CO)C(O)C1O (stereo unspecified) | < 3.70 | < 3.70 | –
O=C(C[n+]1ccncc1)c1ccc2c(c1)CCCC2 | 7.20 | < 3.70 | –
O=C1NC2=NN=C(c3ccc(Br)cc3)CN2NC12c1ccccc1-c1ccccc12 | < 4.00 | < 4.00 | –
C#CC(C)(C)Oc1ccc2c(=O)c(-c3ccccc3)coc2c1 | < 3.70 | – | –
CCCC1(N2C(=O)c3ccc4c5c(ccc(c35)C2=O)N(C2(CCC)CCCCC2)C4=O)CCCCC1 | < 4.00 | < 4.00 | –
Nc1nc(Nc2ccc(Cl)c(Cl)c2)c(N=O)c(=O)[nH]1 | < 3.70 | 5.43 | –
CCCCCCCCCCCC(O)=C1C(=O)CC(O)CC1=O (stereo unspecified) | < 4.77 | < 4.77 | –
O=C(ON(Cc1ccccc1)C(=O)C1C=CC=C1)C1=CCC=C1 | < 4.77 | < 4.77 | –
COc1ccc(-n2cnc3c2NC(C)(C)N=C3C(N)=O)c(OC)c1 | < 3.70 | < 3.70 | –
c1ccc(-c2ccc(N=NN3CCCC3)cc2)cc1 | < 3.70 | 4.83 | –
CNc1ccc(C)cc1S(=O)(=O)c1ccccc1[N+](=O)[O-] | 6.08 | 4.78 | –
C[C@@H]1C[C@H]2[C@@H]3CCC4=CC(=O)C=C[C@]4(C)[C@@]3(F)[C@@H](O)C[C@]2(C)[C@@]1(O)C(=O)CO | – | – | inactive
